In the test the test system is ob/ob mouse model. The test can be described thus: Earlier study of OB3 and D-amino acid-substituted OB3 analogs: body weight gain, food and water intake, blood glucose. The note with it: mouse, in vivo. Type of test: in vivo. From the text:
Single-point D-amino acid substitution was used to study the structure-function relationships of each amino acid residue in OB3, and to increase its efficacy. The restricted domain represented by OB3 contains a functional epitope, which has the ability to mimic at least some of the effects of leptin on energy balance and glucose homeostasis.
The design of peptide ligands involved the introduction of conformational constraints into native sequences by techniques that include, but are not limited to, D-amino acid substitution or cyclization. (Hruby and Bonner, Methods Mol Biol. 35:201-40 (1994)). Systematic replacement of L-amino acids by their D-amino acid isoforms was used to determine the stereostructural requirements of specific residues in a peptide for peptide-receptor interaction, and to assess the contribution of certain secondary structural motifs, e.g., α-helix or β-turn, to the bioactivity of the peptide. (Hruby, Biopolymers 33(7):1073-82 (1993) and Hruby, Life Sci. 52(10):845-55 (1993)). This approach increased peptide resistance to enzymatic hydrolysis, and to enhance the properties of biologically active peptides, including receptor binding, functional potency, and duration of action. (See Fauchere et al., Adv. Drug Res., 23:127-139 (1992); Doherty et al., J. Med. Chem., 36:2585-2594 (1993); Kirby et al., J. Med. Chem., 36:3802-3808 (1993); Morita et al., FEBS Lett., 353:84-88 (1994)).
(See Rozhayskaya-Arena M, et al., Endocrinology 141:2501-2517 (2000); Grasso P et al., Regulatory Pep. 101:123-129 (2001)).

No end group written: not given here.

Consider “SCSLPQT [OB3, amino acid residues 116-122 of mouse leptin]”, for which the “maximal reduction of blood glucose levels” value is reported as “approximately 100 mg/dl”.

Source of the values: patent US20110136728A1, “METHODS OF INCREASING BONE FORMATION USING LEPTIN-RELATED PEPTIDES” (priority 2009, published 2011).
